Data as given in patent US12630600B2 (MEDIMMUNE LIMITED, priority 2022, dated 2026).
Starred links: 1 amine or outer side, 2 acyl side, 3 side chain; linkers in the order of their positions; H or OH if unused. Non-standard residues stand in square brackets, D forms with d. Residues, ends and D or L forms follow the SMILES beside them. Groups on a side chain read outwards from the residue. *: point of attachment. C20 diacid = O=C(O)CCCCCCCCCCCCCCCCCCC(=O)*; C18 diacid = O=C(O)CCCCCCCCCCCCCCCCC(=O)*; Dip = N[C@H](C(=O)O)C(c1ccccc1)c1ccccc1; γGlu = O=C(O)[C@H](CCC(=O)[*:2])N[*:1]; Palmitoyl = CCCCCCCCCCCCCCCC(=O)*; αMeF = C[C@](N)(Cc1ccccc1)C(=O)O; PEG4 = NCCOCCOCCOCCOCCC(=O)O; AEEA = NCCOCCOCC(=O)O; Aib = CC(C)(N)C(=O)O

Key:
[1] = tested on: wildtype (WT) mice; experiment: Glucose change in wildtype mice; type: in vivo, mouse; details: s.c.
Procedure: […] and wildtype (WT) mice at 8-14 weeks of age were singly housed on standard chow diet (Envigo, 2918) and automatic water. They acclimated for a minimum of ˜1-2 weeks, and mice were sorted into groups (n=4-8/group) based on body weight. On day of study, mice were fasted briefly for 2 hrs prior to study start. In some studies, mice were pre-treated with octreotide (BaChem, 10 mg/kg) at 30 minutes prior to peptide injection. Glucose was measured via glucometer at various timepoints including −30 min (prior to octreotide when used in studies), 0 min (before peptide dose), 30, 60, 120, 180, 240, and 360 minutes. Since these studies are acute in nature, mice were re-used for multiple studies (no more than 3) and always allowed at least a minimum wash-out period of 1 week.

[2] = target: T1, human glucagon receptor (hGCGR) (Homo sapiens, UniProt P47871); experiment: cAMP production (HTRF) in CHO cells expressing human glucagon receptor; type: cell-based; details: Table 7, modification at position 20, CHO cells expressing hGCGR, geometric mean, read-out: hGluc-R EC50
T1 construct: expressed in transfected cells; host or cells: CHO

[3] = target: T2, neprilysin (Homo sapiens, UniProt P08473); experiment: Proteolytic resistance to neprilysin; type: in vitro ADME; details: pH 8.3
T2 construct: purchased R&D Systems 1182-ZNC-010
Procedure: 10.0 μg (˜10 units) recombinant Neprilysin (R&D Systems: 1182-ZNC-010) was reconstituted to 100 μL (100 μg/mL, ˜100 units/mL) in assay buffer (50 mM Tris, 50 mM NaCl, 50 mM NaHCO3, adjusted to pH 8.3) to give the enzyme stock solution. Peptide stock solutions were prepared to a concentration of ˜250 μM (˜1.0 mg/mL of 4 kDa peptide) in assay buffer. 100 μL (10 μg, ˜10 units) of neprilysin stock solution was added to 100 μL of peptide stock solution (1.0 mg/mL, ˜100 μg of peptide) and the mixture was co-incubated in a temperature regulated incubator at 37° C. for the duration of the experiment. 25 μL aliquots (˜12.5 μg initial peptide) of the peptide-enzyme mixture were periodically withdrawn (t=0, 30 mins, 1 h, 2 h, 4 h and 24 h) and quenched immediately by addition to an equal volume ([…]) of 10% TFA (v/v) in 1:1 water/acetonitrile to arrest proteolytic activity. The quenched aliquot centrifuged at 7800 rpm, and 30 μL of the supernatant was analyzed by analytical RP-HPLC as follows: Analytical RP-HPLC method: Agilent Polaris C8-A column (4.6×100 mm, 3 micron) eluted with a linear binary gradient of 10-90% MeCN (0.1% TFA v/v) in water (0.1% TFA v/v) over either 10 or 15 mins at 1.5 mL min^−1 at 40° C. with detection by UV absorption at 210 nm. Manual integration (AUC) allowed estimation of remaining intact peptide over the time course of the experiment.

[4] = target: T3, human GLP-1 receptor (hGLP-1R) (Homo sapiens, UniProt P43220); experiment: cAMP production (HTRF) in CHO cells expressing human GLP-1 receptor; type: cell-based
T3 construct: expressed in transfected cells; host or cells: CHO
T3 sequence (P43220 24-463): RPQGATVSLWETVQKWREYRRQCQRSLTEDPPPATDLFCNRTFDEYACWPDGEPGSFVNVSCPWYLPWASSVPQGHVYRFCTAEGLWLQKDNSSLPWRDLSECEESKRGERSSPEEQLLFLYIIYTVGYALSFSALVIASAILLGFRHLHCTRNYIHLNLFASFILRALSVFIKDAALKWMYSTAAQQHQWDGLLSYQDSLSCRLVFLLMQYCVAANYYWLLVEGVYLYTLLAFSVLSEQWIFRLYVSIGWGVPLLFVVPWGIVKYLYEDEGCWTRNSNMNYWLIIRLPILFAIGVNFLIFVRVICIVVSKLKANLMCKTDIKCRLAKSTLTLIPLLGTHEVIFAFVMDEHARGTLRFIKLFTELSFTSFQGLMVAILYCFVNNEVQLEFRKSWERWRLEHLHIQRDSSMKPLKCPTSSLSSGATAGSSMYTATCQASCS

T2 sequence (P08473 whole entry): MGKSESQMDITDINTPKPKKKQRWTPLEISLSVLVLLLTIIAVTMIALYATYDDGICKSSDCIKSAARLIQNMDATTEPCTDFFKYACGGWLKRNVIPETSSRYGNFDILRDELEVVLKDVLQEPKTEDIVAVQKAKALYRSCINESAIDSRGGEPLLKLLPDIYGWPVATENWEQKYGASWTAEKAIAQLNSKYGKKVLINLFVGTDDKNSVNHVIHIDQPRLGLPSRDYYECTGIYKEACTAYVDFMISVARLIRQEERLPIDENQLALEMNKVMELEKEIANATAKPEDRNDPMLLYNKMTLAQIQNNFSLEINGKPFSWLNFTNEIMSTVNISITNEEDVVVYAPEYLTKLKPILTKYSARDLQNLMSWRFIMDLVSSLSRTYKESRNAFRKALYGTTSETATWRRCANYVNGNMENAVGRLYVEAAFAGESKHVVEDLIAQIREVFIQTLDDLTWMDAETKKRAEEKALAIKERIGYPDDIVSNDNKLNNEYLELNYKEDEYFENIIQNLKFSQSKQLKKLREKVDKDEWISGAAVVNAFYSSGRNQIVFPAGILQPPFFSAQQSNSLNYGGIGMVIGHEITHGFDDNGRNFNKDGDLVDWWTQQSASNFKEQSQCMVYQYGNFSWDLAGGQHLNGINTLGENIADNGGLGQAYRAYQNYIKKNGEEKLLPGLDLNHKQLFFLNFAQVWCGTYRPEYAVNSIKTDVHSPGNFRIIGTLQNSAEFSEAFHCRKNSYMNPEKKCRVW
T1 sequence (P47871 26-477): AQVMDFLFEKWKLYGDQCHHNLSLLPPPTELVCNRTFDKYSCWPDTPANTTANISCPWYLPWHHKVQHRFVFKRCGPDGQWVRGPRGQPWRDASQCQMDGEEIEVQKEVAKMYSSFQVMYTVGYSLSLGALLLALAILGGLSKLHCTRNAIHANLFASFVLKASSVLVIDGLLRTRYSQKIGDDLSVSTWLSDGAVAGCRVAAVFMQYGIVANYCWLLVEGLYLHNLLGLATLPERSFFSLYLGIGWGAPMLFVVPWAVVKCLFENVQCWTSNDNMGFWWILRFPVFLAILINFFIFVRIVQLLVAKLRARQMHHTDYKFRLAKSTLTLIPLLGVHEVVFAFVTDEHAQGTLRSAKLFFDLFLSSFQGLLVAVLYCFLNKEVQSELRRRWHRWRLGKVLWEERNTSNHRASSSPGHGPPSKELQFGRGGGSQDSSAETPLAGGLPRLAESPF

SMILES: CC[C@H](C)[C@H](NC(=O)C(C)(C)NC(=O)[C@H](CCC(N)=O)NC(=O)[C@@H](NC(=O)[C@](C)(Cc1ccccc1)NC(=O)[C@H](CC(=O)O)NC(=O)[C@H](CCCCNC(=O)COCCOCCNC(=O)COCCOCCNC(=O)CC[C@H](NC(=O)CCCCCCCCCCCCCCCCC(=O)O)C(=O)O)NC(=O)[C@H](C)NC(=O)[C@H](C)NC(=O)[C@H](CCCNC(=N)N)NC(=O)[C@H](CO)NC(=O)[C@H](CC(=O)O)NC(=O)[C@H](CC(C)C)NC(=O)[C@](C)(Cc1ccccc1)NC(=O)[C@H](CCCCN)NC(=O)[C@H](CO)NC(=O)[C@@H](NC(=O)[C@H](CC(=O)O)NC(=O)[C@H](CO)NC(=O)[C@@H](NC(=O)[C@](C)(Cc1ccccc1)NC(=O)[C@H](CO)NC(=O)CNC(=O)[C@H](Cc1c[nH]cn1)NC(=O)C(C)(C)NC(=O)[C@@H](N)Cc1c[nH]cn1)[C@@H](C)O)C(C)C)C(C)C)C(=O)N[C@@H](C)C(=O)N[C@@H](CC(N)=O)C(=O)N[C@H](C(N)=O)[C@@H](C)O [Peptide 224, H-Aib-H-G-S-αMePhe-T-S-D-V-S-K-αMePhe-L-D-S-R-A-A-K(ε-(O2Oc)-(O2Oc)-γE-C18diacid)20-D-αMePhe-V-Q-Aib-I-A-N-T-amide] (H-H[Aib]HGS[αMeF]TSDVSK[αMeF]LDSRAAK([AEEA-AEEA-γGlu-C18 diacid])D[αMeF]VQ[Aib]IANT-NH2)
- WT % glucose change 120 min ([1]; 10 nmol/kg, somatostatin pretreatment 30 min prior to cpd): −40.0%

SMILES: CCCCCCCCCCCCCCCC(=O)N[C@@H](CCC(=O)N[C@@H](CCC(=O)NCCOCCOCCOCCOCCC(=O)NCCCC[C@H](NC(=O)[C@H](CO)NC(=O)[C@H](CC(=O)O)NC(=O)[C@H](CC(C)C)NC(=O)[C@@H](NC(=O)[C@H](CCCCN)NC(=O)[C@H](CO)NC(=O)[C@@H](NC(=O)[C@H](CC(=O)O)NC(=O)[C@H](CO)NC(=O)[C@@H](NC(=O)[C@](C)(Cc1ccccc1)NC(=O)[C@H](CO)NC(=O)CNC(=O)[C@H](CCC(N)=O)NC(=O)C(C)(C)NC(=O)[C@@H](N)Cc1c[nH]cn1)[C@@H](C)O)C(C)C)C(c1ccccc1)c1ccccc1)C(=O)N[C@@H](CCCNC(=N)N)C(=O)N[C@@H](C)C(=O)N[C@@H](CCC(N)=O)C(=O)N[C@@H](CC(=O)O)C(=O)N[C@@](C)(Cc1ccccc1)C(=O)N[C@H](C(=O)N[C@@H](CCC(=O)O)C(=O)NC(C)(C)C(=O)N[C@@H](CC(C)C)C(=O)N[C@@H](CCC(=O)O)C(=O)N[C@@H](C)C(=O)NCC(=O)NCC(N)=O)C(C)C)C(=O)O)C(=O)O [Peptide 43] (H-H[Aib]QGS[αMeF]TSDVSK[Dip]LDSK([PEG4-γGlu-γGlu-Palmitoyl])RAQD[αMeF]VE[Aib]LEAGG-NH2; N-terminus assumed)
- WT % glucose change 120 min ([1]; 3 nmol/kg, no somatostatin pretreatment): −56.0%

SMILES: CC[C@H](C)[C@H](NC(=O)[C@H](Cc1c[nH]c2ccccc12)NC(=O)[C@H](CCC(N)=O)NC(=O)[C@@H](NC(=O)[C@H](Cc1ccccc1)NC(=O)[C@H](CC(=O)O)NC(=O)[C@H](CCCCNC(=O)COCCOCCNC(=O)COCCOCCNC(=O)CC[C@H](NC(=O)CC[C@H](NC(=O)CCCCCCCCCCCCCCCCCCC(=O)O)C(=O)O)C(=O)O)NC(=O)[C@H](C)NC(=O)[C@H](C)NC(=O)[C@H](CCCNC(=N)N)NC(=O)[C@H](CO)NC(=O)[C@H](CC(=O)O)NC(=O)[C@H](CC(C)C)NC(=O)[C@](C)(Cc1ccccc1)NC(=O)[C@H](CCCCN)NC(=O)[C@H](CO)NC(=O)[C@@H](NC(=O)[C@H](CC(=O)O)NC(=O)[C@H](CO)NC(=O)[C@@H](NC(=O)[C@H](Cc1ccccc1)NC(=O)[C@H](CO)NC(=O)CNC(=O)[C@H](Cc1c[nH]cn1)NC(=O)C(C)(C)NC(=O)[C@@H](N)Cc1c[nH]cn1)[C@@H](C)O)C(C)C)C(C)C)C(=O)N[C@@H](C)C(=O)N[C@@H](CC(N)=O)C(=O)N[C@H](C(N)=O)[C@@H](C)O [Peptide 290] (H-H[Aib]HGSFTSDVSK[αMeF]LDSRAAK([AEEA-AEEA-γGlu-γGlu-C20 diacid])DFVQWIANT-NH2; N-terminus assumed)
- EC50 [2]: 0.26 nM
- remaining at 4 h, 125 µM ([3]; isolated enzyme neprilysin): 89%
- remaining at 24 h, 125 µM ([3]; isolated enzyme neprilysin): 82%
- % intact peptide over time, Neprilysin [3]: 100%
- EC50 ([4]; Table 7, modification at position 20, CHO cells expressing hGLP-1R, cAMP, geometric mean, read-out: hGLP-1R EC50): 0.347 nM
- % Relative Potency Ratio ([4]; Table 7, % GLP-1R activity relative to GLP-1 / % GlucR activity relative to glucagon): 1.5
